Numbering of substitutions follows the chain as printed.
What was measured:
Lys^65Arg hFFA2 [1] = target: T1, Lys^65Arg hFFA2 (Homo sapiens, UniProt O15552, K65R); experiment: inositol monophosphate accumulation assay, Lys65Arg hFFA2; type: cell-based
T1 construct: NanoLuc Luciferase (N); eYFP; expressed in transfected cells; host or cells: Flp-In T-REx HEK293, doxycycline-induced
T1 sequence (O15552 1-330 K65R): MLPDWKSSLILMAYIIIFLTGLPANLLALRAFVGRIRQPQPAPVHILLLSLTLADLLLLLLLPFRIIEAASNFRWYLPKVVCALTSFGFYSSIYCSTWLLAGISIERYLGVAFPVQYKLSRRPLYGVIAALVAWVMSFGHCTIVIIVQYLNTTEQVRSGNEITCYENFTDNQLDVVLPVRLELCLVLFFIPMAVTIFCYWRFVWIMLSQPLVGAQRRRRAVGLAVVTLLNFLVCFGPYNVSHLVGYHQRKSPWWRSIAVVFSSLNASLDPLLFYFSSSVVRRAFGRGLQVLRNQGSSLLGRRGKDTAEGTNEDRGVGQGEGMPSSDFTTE
Procedure: (§1) All cAMP and inositol monophosphate experiments were performed using Flp-In T-REx HEK293 cells induced to express the receptor of interest. Experiments were carried out using respective homogenous time-resolved FRET-based detection kits (CisBio Bioassays; CisBio, Codolet, France) according to the manufacturer’s protocol. For the cAMP inhibition assay cells were plated at 2000 cells/well in low-volume 384-well plates. The ability of agonists to inhibit 1 μM forskolin-induced cAMP production was assessed following a co-incubation for 30 min with agonist compounds. For the inositol monophosphate accumulation assay cells were plated at 7500 cells/well in low-volume 384-well plates and incubated for 2 h at 37 °C with test compounds. To assess ability of antagonists to inhibit agonist responses, cells were pre-incubated with antagonist compounds for 30 min at 37 °C prior to addition of an EC80 concentration of agonist. Respective reactions were stopped according to the manufacturer’s instructions and the output was measured by with a PHERAstar FS plate reader (BMGLabtech, Aylesbury, UK).

Lys^65Glu hFFA2 [2] = target: T2, Lys^65Glu hFFA2 (Homo sapiens, UniProt O15552, K65E); experiment: inositol monophosphate accumulation assay, Lys65Glu hFFA2; type: cell-based
T2 construct: NanoLuc Luciferase (N); eYFP; expressed in transfected cells; host or cells: Flp-In T-REx HEK293, doxycycline-induced
T2 sequence (O15552 1-330 K65E): T1 sequence (O15552 1-330 K65R) with R65E
Procedure: as §1

Lys^65Ala hFFA2 [3] = target: T3, Lys^65Ala hFFA2 (Homo sapiens, UniProt O15552, K65A); experiment: [35S]GTPγS incorporation assay, Lys65Ala hFFA2; type: biochemical; design: NanoLuc Luciferase (N); eYFP; expressed in transfected cells; host or cells: Flp-In T-REx HEK293, doxycycline-induced; conditions: membranes
T3 sequence (O15552 1-330 K65A): T1 sequence (O15552 1-330 K65R) with R65A
Procedure: (§2) Initially, 5 μg of generated membrane protein was pre-incubated for 15 min at 25 °C in assay buffer (50 mM Tris-HCl, 10 mM MgCl2; 100 mM NaCl; 1 mM EDTA; 1 μM GDP; 0.1% fatty acid-free bovine serum albumin; pH 7.4) containing the indicated ligand concentrations. […] Unbound radioligand was removed from filters by three washes with ice-cold wash buffer (50 mM Tris-HCl, 10 mM MgCl2; pH 7.4) and filters were dried for 2–3 h at room temperature. Dried filters were added to 3 mL of Ultima Gold^TM XR (PerkinElmer Life Sciences, Beaconsfield, UK) and [^35S]GTPγS binding was determined by liquid scintillation spectrometry.

Lys^65Arg hFFA2 [4] = target: T1, Lys^65Arg hFFA2; experiment: HTRF cAMP inhibition assay, Lys65Arg hFFA2; type: cell-based; conditions: inhibition of 1 μM forskolin-induced cAMP
Procedure: as §1

Lys^65Ala hFFA2 [5] = target: T3, Lys^65Ala hFFA2; experiment: inositol monophosphate accumulation assay, Lys65Ala hFFA2; type: cell-based; design: NanoLuc Luciferase (N); eYFP; expressed in transfected cells; host or cells: Flp-In T-REx HEK293, doxycycline-induced
Procedure: as §1

Lys^65Arg hFFA2 [6] = target: T1, Lys^65Arg hFFA2; experiment: [35S]GTPγS incorporation assay, Lys65Arg hFFA2; type: biochemical; conditions: membranes
Procedure: as §2

Lys^65Glu hFFA2 [7] = target: T2, Lys^65Glu hFFA2; experiment: [35S]GTPγS incorporation assay, Lys65Glu hFFA2; type: biochemical; conditions: membranes
Procedure: as §2

Lys^65Ala hFFA2 [8] = target: T3, Lys^65Ala hFFA2; experiment: HTRF cAMP inhibition assay, Lys65Ala hFFA2; type: cell-based; design: NanoLuc Luciferase (N); eYFP; expressed in transfected cells; host or cells: Flp-In T-REx HEK293, doxycycline-induced; conditions: inhibition of 1 μM forskolin-induced cAMP, K65A hFFA2
Procedure: as §1

Lys^65Glu hFFA2 [9] = target: T2, Lys^65Glu hFFA2; experiment: HTRF cAMP inhibition assay, Lys65Glu hFFA2; type: cell-based; conditions: inhibition of 1 μM forskolin-induced cAMP, K65E hFFA2
Procedure: as §1

hFFA2 [10] = target: T4, hFFA2 (Homo sapiens, UniProt O15552); experiment: [35S]GTPγS incorporation assay, wild type hFFA2; type: biochemical; design: HA-tag (C); expressed in transfected cells; host or cells: HEK293, parental and CRISPR/Cas9 G protein-deleted lines, transient transfection; conditions: membranes
T4 sequence (O15552 1-330): T1 sequence (O15552 1-330 K65R) with R65K
Procedure: as §2

hFFA2 [11] = target: T4, hFFA2; experiment: inositol monophosphate accumulation assay, wild type hFFA2; type: cell-based; design: expressed in transfected cells; conditions: wild type hFFA2
Procedure: as §1

hFFA2 [12] = target: T4, hFFA2; experiment: HTRF cAMP inhibition assay, wild type hFFA2; type: cell-based; design: expressed in transfected cells; conditions: inhibition of 1 μM forskolin-induced cAMP
Procedure: as §1

pEC50 GTPγS, K65A (Lys^65Ala hFFA2 [3]): 6.94 ± 0.14
pEC50 cAMP, K65R (Lys^65Arg hFFA2 [4]): 6.47 ± 0.15
pEC50 GTPγS, K65R (Lys^65Arg hFFA2 [6]): 6.79 ± 0.07
pEC50 GTPγS, K65E (Lys^65Glu hFFA2 [7]): 6.79 ± 0.12
pEC50 cAMP, K65A (Lys^65Ala hFFA2 [8]): 6.42 ± 0.03
pEC50 cAMP, K65E (Lys^65Glu hFFA2 [9]): 6.45 ± 0.15
pEC50 GTPγS, WT (hFFA2 [10]): 6.97 ± 0.02
pEC50 cAMP, WT (hFFA2 [12]): 6.35 ± 0.13
SMILES: Cc1nc(NC(=N)N)sc1-c1cccc(NC(=O)c2ccc(F)cc2)c1 [AZ1729, N-[3-(2-carbamimidamido-4-methyl-1,3-thiazol-5-yl)phenyl]-4-fluoro benzamide]
inositol monophosphate production via Lys65Arg hFFA2 (Lys^65Arg hFFA2 [1]): unable to promote inositol monophosphate production
inositol monophosphate production via Lys65Glu hFFA2 (Lys^65Glu hFFA2 [2]): unable to promote inositol monophosphate production
inositol monophosphate production via Lys65Ala hFFA2 (Lys^65Ala hFFA2 [5]): unable to promote inositol monophosphate production
accumulation of inositol monophosphates via hFFA2 (hFFA2 [11]): unable to promote accumulation of inositol monophosphates
